Measured values published in patent US5939404A, “Cancer metastasis inhibitor containing a streptococcus agalactiae Ia type or Ib type surface polysaccharide as a main ingredient” (NGK Insulators, Ltd., priority 1997, dated 1999).

How the values were obtained:
[1] = test system: adhesion between the cell-lined intravascular endothelial cell strain #5-1 and the cancer cells HL-60; experiment: Adhesion inhibition of [35S]methionine-labeled HL-60 cancer cells to cell-lined intravascular endothelial cell strain #5-1 (FIGS. 9(a), 9(b)); assay type: cell-based, human; details: at a concentration at which the Ia or Ib sugar chain exhibited adhesion inhibiting activity
Description: (4) Next, how much adhesion of the cancer cell to the intravascular endothelial cells thus cultivated was inhibited by the addition of the sugar chain obtained above to the intravascular endothelial cells was examined. First, intravascular endothelial cells were placed on one plane of a 96-well plate, and appearance of E-selectin was induced by adding interleukin-1β to the cells. The cultivation for about 3 hours made E-selectin appear. The Ia type or Ib type sugar chain was added to it, and 1×10^4 cancer cells labeled with [^35 S] methionine were added to it, and the mixture was left at 37° C. for 30 minutes as it was. Thereafter, the mixture was immersed in and washed with PBS, and those cancer cells not adhered were washed off. The cells were recovered by adding 100 μl of a 0.1 N aqueous solution of sodium hydroxide to each of the 96-well plates, and a residual radioactivity value was measured by using a liquid scintillation counter.

[2] = test system: adhesion of the cancer cells HL-60 to the intravascular endothelial cells; experiment: Microscopic observation of adhesion of HL-60 cancer cells to intravascular endothelial cells (FIG. 8); assay type: cell-based, human; details: interleukin-1β added (FIG. 8b) vs not added (FIG. 8a)
Description: Slender, large cells are intravascular endothelial cells, and whitish, bright, round cells are cancer cells HL-60.

E-selectin = E-selectin appearance on intravascular endothelial cells by fluorescent microscopy with E-selectin antibody (FIG. 7); assay type: cell-based; details: interleukin-1β added (FIGS. 7(a), 7(b)) vs not added; human normal cells and strain #5
Description: FIGS. 7(a) through 7(d) are microphotographs obtained by photographing with a fluorescent microscope to confirm whether E-selectin was produced or not at the surfaces of the intravascular endothelial cells, through coloring the human normal intravascular endothelial cells and the cell-lined human intravascular endothelial cell strains #5 with E-selectin antibody. As compared with cases in which no interleukin-1β was added (FIGS. 7(c) and 7(d)), it is clear that appearance of E-selectin was induced in cases where interleukin-1β was added (FIGS. 7(a) and 7(b)).

Substance | adhesion inhibiting activity [1] | adhesion of the cancer cells to the intravascular endothelial cells (microphotographs) [2] | appearance of E-selectin (E-selectin)
colominic acid | not almost exhibited | – | –
interleukin-1β: added to the cells to induce appearance of E-selectin | – | more conspicuous | induced
